According to ChEMBL document CHEMBL5360555, “Structure-based discovery of novel α-aminoketone derivatives as dual p53-MDM2/MDMX inhibitors for the treatment of cancer” (Eur J Med Chem, 2023):
pIC50, pKi: −log10 of the molar value. The source made the active and inactive calls. The calls are words filed in the database; no cut-off is given here.

Columns and labels:
[1] = molecular target: E3 ubiquitin-protein ligase Mdm2 (Homo sapiens, UniProt Q00987); assay: Binding affinity to MDM2 (1 to 118 residues) (unknown origin) assessed as inhibition constant incubated for 1 hr measured by fluorescence polarization assay
Chain of E3 ubiquitin-protein ligase Mdm2 (Q00987 whole entry, the tested form may be a part): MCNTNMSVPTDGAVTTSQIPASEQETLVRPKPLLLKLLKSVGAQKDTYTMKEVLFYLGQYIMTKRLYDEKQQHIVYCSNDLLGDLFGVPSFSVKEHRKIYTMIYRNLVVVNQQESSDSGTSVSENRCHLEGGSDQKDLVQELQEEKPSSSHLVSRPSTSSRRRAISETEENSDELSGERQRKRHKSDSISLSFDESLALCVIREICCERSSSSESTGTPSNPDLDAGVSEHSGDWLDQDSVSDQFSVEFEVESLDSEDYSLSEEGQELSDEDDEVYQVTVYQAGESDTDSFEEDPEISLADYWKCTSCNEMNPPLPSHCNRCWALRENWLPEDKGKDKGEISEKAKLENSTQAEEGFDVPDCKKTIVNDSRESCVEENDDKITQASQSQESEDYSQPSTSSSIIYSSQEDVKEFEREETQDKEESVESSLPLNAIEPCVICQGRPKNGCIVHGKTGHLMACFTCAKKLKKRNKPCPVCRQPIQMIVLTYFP

[2] = system: HCT-116; assay: Antiproliferative activity against human HCT-116 cells overexpressing MDM2 assessed as cell growth inhibition incubated for 72 hrs by CCK-8 assay; assay type: functional, cell-based; conditions: HCT-116, 72 h
[3] = system: SH-SY5Y; assay: Antiproliferative activity against human SH-SY5Y cells overexpressing MDMX assessed as cell growth inhibition incubated for 72 hrs by CCK-8 assay; assay type: functional, cell-based
[4] = molecular target: T1, Protein Mdm4 (Homo sapiens, UniProt O15151); assay: Binding affinity to MDMX (1 to 118 residues) (unknown origin) assessed as inhibition constant incubated for 1 hr measured by fluorescence polarization assay
T1 sequence (O15151 whole entry): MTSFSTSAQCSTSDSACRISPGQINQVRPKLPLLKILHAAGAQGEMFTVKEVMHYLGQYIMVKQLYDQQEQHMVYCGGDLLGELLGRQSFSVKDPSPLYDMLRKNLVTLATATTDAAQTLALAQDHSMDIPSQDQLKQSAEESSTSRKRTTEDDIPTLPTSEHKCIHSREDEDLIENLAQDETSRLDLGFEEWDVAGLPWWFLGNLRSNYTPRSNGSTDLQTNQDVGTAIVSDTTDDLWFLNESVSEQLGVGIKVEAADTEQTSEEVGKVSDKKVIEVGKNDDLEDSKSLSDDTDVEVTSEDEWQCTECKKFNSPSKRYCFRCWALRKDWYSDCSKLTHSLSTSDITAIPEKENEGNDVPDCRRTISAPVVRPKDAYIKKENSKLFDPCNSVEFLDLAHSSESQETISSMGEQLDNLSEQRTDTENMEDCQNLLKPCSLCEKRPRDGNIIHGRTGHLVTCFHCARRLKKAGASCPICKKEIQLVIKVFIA

[5] = Antiproliferative activity against human HCT116-p53-null cells overexpressing MDMX assessed as cell growth inhibition incubated for 72 hrs by CCK-8 assay; assay type: functional, cell-based
[6] = system: SJSA-1; assay: Antiproliferative activity against human SJSA-1 cells overexpressing MDM2 assessed as cell growth inhibition incubated for 72 hrs by CCK-8 assay; assay type: functional, cell-based; conditions: SJSA-1, 72 h
[7] = Cytotoxicity against human BEAS-2B cells incubated for 72 hrs by CCK-8 assay; assay type: toxicity, cell-based
[8] = Cytotoxicity against human LO2 cells incubated for 72 hrs by CCK-8 assay; assay type: toxicity, cell-based, L02
[9] = system: HCT-116; assay: Inhibition of colony formation in human HCT-116 cells incubated at 0.6 uM for 8 to 15 days measured by crystal violet staining based microscopic analysis; assay type: functional, cell-based; conditions: time 8-15 day
[10] = system: SH-SY5Y; assay: Inhibition of colony formation in human SH-SY5Y cells incubated at 0.6 uM for 8 to 15 days measured by crystal violet staining based microscopic analysis; assay type: functional, cell-based; conditions: time 8-15 day
[11] = system: HCT-116; assay: Inhibition of cell migration in human HCT-116 cells measured using transwell chamber by crystal violet staining based microscopic analysis; assay type: functional; conditions: dose 0.2-0.6 µM
[12] = system: SH-SY5Y; assay: Inhibition of cell migration in human SH-SY5Y cells measured using transwell chamber by crystal violet staining based microscopic analysis; assay type: functional; conditions: dose 0.2-0.6 µM
[13] = system: HCT-116; assay: Inhibition of cell invasion in human HCT-116 cells measured using transwell chamber by crystal violet staining based microscopic analysis; assay type: functional; conditions: dose 0.2-0.6 µM
[14] = system: SH-SY5Y; assay: Inhibition of cell invasion in human SH-SY5Y cells measured using transwell chamber by crystal violet staining based microscopic analysis; assay type: functional; conditions: dose 0.2-0.6 µM

Row | Structure (SMILES) | pKi [1] | pIC50 [2] | pIC50 [3] | pKi [4] | pIC50 [5] | pIC50 [6] | IC50 at 72 h [7] [µM] | IC50 at 72 h [8] [µM] | inhibition [9] | inhibition [10] | inhibition [11] | inhibition [12] | inhibition [13] | inhibition [14]
1 | COc1ccc(S(=O)(=O)N(c2ccc(Cl)cc2)C(C(=O)c2ccc(Cl)cc2)c2ccc(F)cc2Cl)cc1 (stereo not given) | 6.19 | 4.92 | 5.02 | 4.81 | 4.52 | 4.98 | – | – | – | – | – | – | – | –
2 | O=C(CCC(=O)N(c1ccc(Cl)cc1)C(C(=O)c1ccc(Cl)cc1)c1ccc(F)cc1Cl)NCCN1CCOCC1 (stereo not given) | 6.25 | 5.11 | 5.26 | 4.88 | 4.55 | 5.17 | – | – | – | – | – | – | – | –
3 | COC(=O)c1ccc(NC(=O)CCC(=O)N(c2ccc(Cl)cc2)C(C(=O)c2ccc(Cl)cc2)c2ccc(F)cc2Cl)cc1 (stereo not given) | 6.02 | 4.85 | 4.88 | 4.54 | 4.64 | 4.86 | – | – | – | – | – | – | – | –
4 | CC(C)(C)OC(=O)N1CCN(C(=O)CCC(=O)N(c2ccc(Cl)cc2)C(C(=O)c2ccc(Cl)cc2)c2ccc(F)cc2Cl)CC1 (stereo not given) | 6.14 | 5.00 | 4.93 | 4.43 | 4.76 | 5.02 | – | – | – | – | – | – | – | –
5 | CC(=O)N1CCN(C(=O)CCC(=O)N(c2ccc(Cl)cc2)C(C(=O)c2ccc(Cl)cc2)c2ccc(F)cc2Cl)CC1 (stereo not given) | 6.46 | 5.38 | 5.39 | 5.13 | 4.57 | 5.42 | – | – | – | – | – | – | – | –
6 | COC(=O)c1ccc(C(=O)N(c2ccc(Cl)cc2)C(C(=O)c2ccc(Cl)cc2)c2ccc(F)cc2Cl)cc1 (stereo not given) | 5.97 | 5.05 | 5.13 | 4.89 | 4.68 | 4.99 | – | – | – | – | – | – | – | –
7 | CN(C)C1CCN(C(=O)CCC(=O)N(c2ccc(Cl)cc2)C(C(=O)c2ccc(Cl)cc2)c2ccc(F)cc2Cl)CC1 (stereo not given) | 6.55 | 6.14 | 6.16 | 5.46 | 4.87 | 6.19 | 16.3 | 12.7 | Active | Active | Dose-Dependent Effect | Dose-Dependent Effect | Dose-Dependent Effect | Dose-Dependent Effect
